ChEMBL document CHEMBL5584341, “Discovery of Potent, Specific, and Orally Available NLRP3 Inflammasome Inhibitors Based on Pyridazine Scaffolds for the Treatment of Septic Shock and Peritonitis” (J Med Chem, 2024)

Experiments:
[1] = Inhibition of IL-1beta release in PMA-differentiated/ LPS and nigericin stimulated human THP-1 cells at 0.1 uM pretreated with LPS for 3 hrs followed by incubation with compound for 40 mins and later stimulated with nigericin for 40 mins by ELISA; format: functional; conditions: THP-1, 1.333 h, time 80 min
[2] = Inhibition of IL-1beta release in PMA-differentiated/ LPS and nigericin stimulated human THP-1 cells at 0.5 uM pretreated with LPS for 3 hrs followed by incubation with compound for 40 mins and later stimulated with nigericin for 40 mins by ELISA; format: functional; conditions: THP-1, 1.333 h, time 80 min
[3] = Metabolic stability in human liver microsomes assessed as intrinsic clearance per g protein at 10 uM […] in presence of NADPH by LC-MS/MS analysis; format: ADME, Microsome
[4] = Metabolic stability in human liver microsomes assessed as half life at 10 uM […] in presence of NADPH by LC-MS/MS analysis; format: ADME, Microsome
[5] = Inhibition of IL-1beta release in PMA-differentiated/ LPS and nigericin stimulated human THP-1 cells pretreated with LPS for 3 hrs followed by incubation with compound for 40 mins and later stimulated with nigericin for 40 mins by ELISA; format: functional, cell-based
hERG (KCNH2) = hERG (KCNH2) (Homo sapiens, UniProt Q12809); test: Inhibition of human ERG at 20 uM relative to control
Mus musculus = test: Antiinflammatory activity against LPS induced septic shock in BALB/c mouse assessed as increase in survival rate at 25 mg/kg, ip pretreated for 1 hr followed by LPS stimulation and measured after 72 hrs; format: functional; conditions: time 73 hrs

hERG (KCNH2), sequence (Q12809 whole entry): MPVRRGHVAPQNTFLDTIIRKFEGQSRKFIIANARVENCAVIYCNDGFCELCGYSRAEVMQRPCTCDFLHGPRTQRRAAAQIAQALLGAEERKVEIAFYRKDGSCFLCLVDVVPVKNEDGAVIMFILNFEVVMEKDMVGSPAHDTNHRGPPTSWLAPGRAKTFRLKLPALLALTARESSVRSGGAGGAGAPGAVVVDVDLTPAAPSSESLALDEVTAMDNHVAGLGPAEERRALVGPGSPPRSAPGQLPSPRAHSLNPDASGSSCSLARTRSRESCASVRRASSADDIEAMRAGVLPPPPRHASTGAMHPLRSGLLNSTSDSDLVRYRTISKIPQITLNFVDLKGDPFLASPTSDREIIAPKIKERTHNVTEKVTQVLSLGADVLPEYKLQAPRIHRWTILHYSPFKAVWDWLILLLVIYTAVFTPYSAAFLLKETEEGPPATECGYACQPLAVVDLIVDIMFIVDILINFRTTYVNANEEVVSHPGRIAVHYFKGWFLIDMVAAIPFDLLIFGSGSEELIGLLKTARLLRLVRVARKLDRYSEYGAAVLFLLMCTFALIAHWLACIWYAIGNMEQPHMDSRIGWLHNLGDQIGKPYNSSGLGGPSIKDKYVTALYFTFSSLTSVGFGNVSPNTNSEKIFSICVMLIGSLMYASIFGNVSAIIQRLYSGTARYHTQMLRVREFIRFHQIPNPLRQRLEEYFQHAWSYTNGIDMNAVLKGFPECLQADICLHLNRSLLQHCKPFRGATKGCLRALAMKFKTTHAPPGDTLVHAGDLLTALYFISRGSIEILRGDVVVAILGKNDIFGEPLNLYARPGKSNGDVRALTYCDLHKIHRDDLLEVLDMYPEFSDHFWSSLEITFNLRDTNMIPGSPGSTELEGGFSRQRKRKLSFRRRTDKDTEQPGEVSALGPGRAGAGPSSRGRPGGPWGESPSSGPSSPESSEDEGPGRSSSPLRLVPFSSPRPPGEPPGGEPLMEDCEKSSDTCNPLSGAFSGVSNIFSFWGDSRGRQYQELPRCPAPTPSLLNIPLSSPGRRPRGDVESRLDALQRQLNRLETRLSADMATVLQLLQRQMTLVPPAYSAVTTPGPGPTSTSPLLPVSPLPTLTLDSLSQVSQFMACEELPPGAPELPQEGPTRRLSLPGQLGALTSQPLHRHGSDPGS

Row | SMILES | inhibition at 0.1 µM [1] [%] | inhibition at 0.5 µM [2] [%] | intrinsic clearance [3] [mL/min] | half-life at 10 µM [4] [h] | IC50 [5] [nM] | inhibition at 20 µM (hERG (KCNH2)) [%] | Activity (Mus musculus) [%]
1 | N#CCN1CCC[C@@H](Nc2nnc(-c3ccc(C(F)(F)F)cc3O)c3c2C2CCC3C2)C1 (some centres undefined) | 7.6 | 77 | – | – | – | – | –
2 | Oc1c(-c2nnc(N[C@@H]3CCCC[C@H]3O)c3c2C2CCC3CC2)ccc2occc12 | 94.9 | 96.3 | < 12 | > 2 | 6 | 60 | –
3 | Oc1cc(C(F)(F)F)ccc1-c1nnc(N[C@@H]2CCCN(C3CCC3)C2)c2c1C1CCC2C1 (some centres undefined) | 94.6 | 97.2 | – | – | 49 | – | –
4 | CCN1CCC[C@@H](Nc2nnc(-c3ccc(C(F)(F)F)cc3O)c3c2C2CCC3C2)C1 (some centres undefined) | 92.5 | 96.3 | – | – | 27 | – | –
5 | Oc1cc(Cl)ccc1-c1nnc(N[C@@H]2CCCN(C3CC(F)(F)C3)C2)c2c1C1CCC2CC1 | 88 | 95.3 | – | – | 26 | 23.9 | –
6 | Oc1cc(C(F)(F)F)ccc1-c1nnc(N[C@@H]2CCCN(C3CCC3)C2)c2c1C1CCC2CC1 | 96.8 | 97.1 | – | – | 27 | – | –
7 | Oc1cc(C(F)(F)F)ccc1-c1nnc(N[C@@H]2CCC[C@H](O)C2)c2c1C1CCC2CC1 | 45 | 90.8 | – | – | – | – | –
8 | Oc1cc(C(F)(F)F)ccc1-c1nnc(N[C@@H]2CCCN(C3CCOC3)C2)c2c1C1CCC2CC1 (some centres undefined) | 95.2 | 96.8 | – | – | 49 | – | –
9 | Oc1c(-c2nnc(N[C@@H]3CCOC3)c3c2C2CCC3CC2)ccc2occc12 | 25 | 30 | – | – | – | – | –
10 | Oc1cc(C(F)(F)F)ccc1-c1nnc(N[C@@H]2CCCN(CC3CC3)C2)c2c1C1CCC2C1 (some centres undefined) | 83.9 | 97.2 | – | – | 87 | – | –
11 | [2H]C([2H])([2H])C([2H])([2H])N1CCC[C@@H](Nc2nnc(-c3ccc4occc4c3O)c3c2C2CCC3CC2)C1 | 98.6 | 98.5 | < 12 | > 2 | 1 | 85.8 | –
12 | Oc1cc(C(F)(F)F)ccc1-c1nnc(N[C@@H]2CCCC[C@H]2O)c2c1CCCC2 | 92.4 | 98.3 | – | – | 6 | 84.1 | –
13 | Oc1cc(C(F)(F)F)ccc1-c1nnc(N[C@@H]2CCCN(C3COC3)C2)c2c1C1CCC2CC1 | 52.9 | 96.5 | – | – | – | – | –
14 | OC[C@@H](O)CNc1nnc(-c2ccc(C(F)(F)F)cc2O)c2c1C1CCC2CC1 | 20.3 | 74.5 | – | – | – | – | –
15 | Oc1c(-c2nnc(N[C@@H]3CCC[C@H](O)C3)c3c2C2CCC3CC2)ccc2occc12 | 97.2 | 98.2 | 20 | 1.16 | 4 | 59 | –
16 | CN1CC[C@@H](Nc2nnc(-c3ccc(C(F)(F)F)cc3O)c3c2C2CCC3C2)C1 (some centres undefined) | 12.1 | 32.7 | – | – | – | – | –
17 | Oc1cc(C(F)(F)F)ccc1-c1nnc(N[C@@H]2CCCC[C@H]2O)c2c1C1CCC2C1 (some centres undefined) | 43.5 | 95.6 | – | – | 79 | 57.7 | –
18 | CC(CO)N1CCC[C@@H](Nc2nnc(-c3ccc4occc4c3O)c3c2C2CCC3CC2)C1 (some centres undefined) | 98.8 | 99 | < 12 | > 2 | 4 | 71 | –
19 | CC(C)(O)c1coc(S(=O)(=O)NC(=O)Nc2c3c(cc4c2CCC4)CCC3)c1 | 99.2 | 99.3 | – | – | 8 | – | 60
20 | Oc1cc(C(F)(F)F)ccc1-c1nnc(N[C@@H]2CCCC[C@H]2O)c2ccccc12 | 98.3 | 97.8 | – | – | 9 | 86 | –
21 | CN1C[C@H](Nc2nnc(-c3ccc4occc4c3O)c3c2C2CCC3CC2)CC(F)(F)C1 | 55.5 | 97.7 | – | – | – | – | –

Row | SMILES | inhibition at 0.1 µM [1] [%] | inhibition at 0.5 µM [2] [%] | intrinsic clearance [3] [mL/min] | half-life at 10 µM [4] [h] | IC50 [5] [nM] | inhibition at 20 µM (hERG (KCNH2)) [%] | Activity (Mus musculus) [%]
22 | CN1CCC[C@H](Nc2nnc(-c3ccc(C(F)(F)F)cc3O)c3c2C2CCC3C2)C1 (some centres undefined) | 5.31 | 3.09 | – | – | – | – | –
23 | Oc1cc(C(F)(F)F)ccc1-c1nnc(N[C@@H]2CCCNC2)c2c1C1CCC2CC1 | 46.5 | 94.3 | – | – | 103 | – | –
24 | N#Cc1ccc(-c2nnc(N[C@@H]3CCCN(C4CC(F)(F)C4)C3)c3c2C2CCC3CC2)c(O)c1 | 51.7 | 91.5 | – | – | – | – | –
25 | CN1CCC[C@@H](Nc2nnc(-c3ccc(C(F)(F)F)cc3O)c3c2C2CCC3CC2)C1 | 97 | 97.4 | – | – | 38 | – | –
26 | CN1CCO[C@H](CNc2nnc(-c3ccc4occc4c3O)c3c2C2CCC3CC2)C1 | 9.42 | 36.5 | – | – | – | – | –
27 | CCN1CCC[C@@H](Nc2nnc(-c3ccc4occc4c3O)c3c2C2CCC3CC2)C1 | 98.6 | 98.3 | < 12 | > 2 | 1 | 85.3 | –
28 | CN1CCC[C@@H](Nc2nnc(-c3ccc(C(F)(F)F)cc3O)c3c2C2CCC3C2)C1 (some centres undefined) | 95 | 96.9 | – | – | 38 | – | –
29 | Oc1cc(OC(F)(F)F)ccc1-c1nnc(N[C@@H]2CCCN(C3CC(F)(F)C3)C2)c2c1C1CCC2CC1 | 46.5 | 93.2 | – | – | – | – | –
30 | OCCN1CCC[C@@H](Nc2nnc(-c3ccc(C(F)(F)F)cc3O)c3c2C2CCC3CC2)C1 | 98.6 | 99.2 | – | – | 42 | – | –
31 | CN1C[C@H](F)C[C@@H](Nc2nnc(-c3ccc4occc4c3O)c3c2C2CCC3CC2)C1 | 98.6 | 98.6 | < 12 | > 2 | 5 | 78.5 | –
32 | Oc1c(-c2nnc(N[C@@H]3CCCN(C4CC(F)(F)C4)C3)c3c2C2CCC3CC2)ccc2occc12 | 98.5 | 98.6 | 31 | 0.745 | 2 | -1.03 | –
33 | Cc1c(N[C@@H]2CCCC[C@H]2O)nnc(-c2ccc(C(F)(F)F)cc2O)c1C | 97.8 | 98.3 | – | – | 12 | – | –
34 | Cc1ccc(-c2nnc(N[C@@H]3CCCN(C4CC(F)(F)C4)C3)c3c2C2CCC3CC2)c(O)c1 | 60.2 | 96.6 | – | – | 53 | 63.8 | –
35 | Oc1cc(C(F)(F)F)ccc1-c1nnc(N[C@@H]2CCCN(CC(F)F)C2)c2c1C1CCC2CC1 | 19.7 | 73.8 | – | – | – | – | –
36 | Oc1cc(C(F)(F)F)ccc1-c1nnc(N[C@@H]2CCCN(C3CC(F)(F)C3)C2)c2c1C1CCC2C1 (some centres undefined) | 72.8 | 96.3 | – | – | 76 | – | –
37 | Oc1cc(C(F)(F)F)ccc1-c1nnc(N[C@@H]2CCCC[C@H]2O)c2c1C1CCC2CC1 | 35.9 | 85.8 | – | – | 124 | -1.93 | –
38 | CC(F)(F)CN1CCC[C@@H](Nc2nnc(-c3ccc(C(F)(F)F)cc3O)c3c2C2CCC3CC2)C1 | 29 | 49.9 | – | – | – | – | –
39 | CC(C)(F)CN1CCC[C@@H](Nc2nnc(-c3ccc(C(F)(F)F)cc3O)c3c2C2CCC3CC2)C1 | 55.4 | 95.8 | – | – | – | – | –
40 | Oc1c(-c2nnc(N[C@@H]3CCCN(C4CC(F)(F)C4)C3)c3c2C2CCC3CC2)ccc2sccc12 | 61.9 | 96.9 | – | – | 57 | 69.4 | –
41 | Oc1cc(C(F)(F)F)ccc1-c1nnc(N[C@@H]2CCCN(C3CC(F)(F)C3)C2)c2c1C1CCC2CC1 | 96.3 | 97.4 | – | – | 25 | 15.5 | –
